According to PMC2928581 (Nature communications, 2010):

Target: TRPML1 (ML1) (Mus musculus, UniProt Q99J21)
Assay: whole-endolysosome patch clamp, current activation
Assay type: biochemical

TRPML1 (ML1), sequence (Q99J21 whole entry): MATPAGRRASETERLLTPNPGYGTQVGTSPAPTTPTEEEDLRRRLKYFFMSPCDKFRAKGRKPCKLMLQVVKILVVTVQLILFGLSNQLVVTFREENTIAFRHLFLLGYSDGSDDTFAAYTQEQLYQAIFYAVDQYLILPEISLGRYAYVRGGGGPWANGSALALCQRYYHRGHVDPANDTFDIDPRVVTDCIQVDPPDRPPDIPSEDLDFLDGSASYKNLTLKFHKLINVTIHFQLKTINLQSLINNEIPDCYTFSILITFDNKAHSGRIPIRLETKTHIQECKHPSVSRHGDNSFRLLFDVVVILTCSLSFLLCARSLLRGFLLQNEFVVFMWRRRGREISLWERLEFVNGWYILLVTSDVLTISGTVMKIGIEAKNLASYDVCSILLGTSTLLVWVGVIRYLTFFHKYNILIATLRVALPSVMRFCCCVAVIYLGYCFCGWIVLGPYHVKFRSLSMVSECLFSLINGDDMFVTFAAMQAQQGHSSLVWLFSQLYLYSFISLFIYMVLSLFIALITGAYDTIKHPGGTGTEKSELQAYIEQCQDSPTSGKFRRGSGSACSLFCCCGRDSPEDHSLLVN

Work on CCCCCCCC(=O)OC[C@H](COP(=O)(O)O[C@@H]1[C@H](O)[C@H](OP(=O)(O)O)[C@@H](O)[C@H](OP(=O)(O)O)[C@H]1O)OC(=O)CCCCCCC [PI(3,5)P2 (diC8)] yielded an EC50 of 48 ± 14 nM.
